Experimental data from the supplement of paper PMC13380429.

Legend:
Conditions in all cases: 72 h
[1] = test system: HepG2; experiment: cell viability relative to DMSO; higher = less toxic
[2] = test system: U2OS; experiment: as above
[3] = test system: Vero E6; experiment: as above
[4] = test system: Calu-3; experiment: as above
[5] = test system: Caco-2; experiment: as above
[6] = test system: HepG2; experiment: drug sensitivity score (DSS) for viability; higher = more toxic; extreme values may be limits of the assay
[7] = test system: U2OS; experiment: as above
[8] = test system: Vero E6; experiment: as above
[9] = test system: Calu-3; experiment: as above
[10] = test system: Caco-2; experiment: as above
[11] = test system: HepG2; experiment: relative viability EC50 (midpoint between 100% and the lowest measured viability); higher = less toxic
[12] = test system: U2OS; experiment: as above
[13] = test system: Vero E6; experiment: as above
[14] = test system: Calu-3; experiment: as above
[15] = test system: Caco-2; experiment: as above

CN1C(=O)C(F)=C[C@]2(C)[C@H]3CC[C@]4(C)[C@@H](C(=O)NCc5nc6cccnc6[nH]5)CC[C@H]4[C@@H]3CC[C@@H]12 [MK-0773]
cell viability ([1]; 1 nM): 91.1% | cell viability ([1]; 10 nM): 108% | cell viability ([1]; 100 nM): 93% | cell viability ([1]; 1000 nM): 91.4% | cell viability ([1]; 10000 nM): 87.9% | cell viability ([2]; 1 nM): 99% | cell viability ([2]; 10 nM): 99.4% | cell viability ([2]; 100 nM): 98.8% | cell viability ([2]; 1000 nM): 95.4% | cell viability ([2]; 10000 nM): 95.9% | cell viability ([3]; 1 nM): 99.2% | cell viability ([3]; 10 nM): 102% | cell viability ([3]; 100 nM): 96.2% | cell viability ([3]; 1000 nM): 104% | cell viability ([3]; 10000 nM): 104% | cell viability ([4]; 1 nM): 103% | cell viability ([4]; 10 nM): 103% | cell viability ([4]; 100 nM): 101% | cell viability ([4]; 1000 nM): 97.7% | cell viability ([4]; 10000 nM): 100% | cell viability ([5]; 1 nM): 102% | cell viability ([5]; 10 nM): 92.4% | cell viability ([5]; 100 nM): 100% | cell viability ([5]; 1000 nM): 83.3% | cell viability ([5]; 10000 nM): 87.7% | drug sensitivity score [6]: 0.9 | drug sensitivity score [7]: 0 | drug sensitivity score [8]: 0 | drug sensitivity score [9]: 0 | drug sensitivity score [10]: 1.8 | relative viability EC50 [11]: > 10 µM | relative viability EC50 [12]: > 10 µM | relative viability EC50 [13]: > 10 µM | relative viability EC50 [14]: > 10 µM | relative viability EC50 [15]: > 10 µM

CC1(C)Cc2c(-c3ccccc3)c(-c3ccc(Cl)cc3)c(CC(=O)O)n2C1 [licofelone]
cell viability ([1]; 1 nM): 110% | cell viability ([1]; 10 nM): 102% | cell viability ([1]; 100 nM): 95.4% | cell viability ([1]; 1000 nM): 101% | cell viability ([1]; 10000 nM): 93.1% | cell viability ([2]; 1 nM): 101% | cell viability ([2]; 10 nM): 101% | cell viability ([2]; 100 nM): 97.5% | cell viability ([2]; 1000 nM): 102% | cell viability ([2]; 10000 nM): 90.9% | cell viability ([3]; 1 nM): 102% | cell viability ([3]; 10 nM): 102% | cell viability ([3]; 100 nM): 102% | cell viability ([3]; 1000 nM): 107% | cell viability ([3]; 10000 nM): 99.5% | cell viability ([4]; 1 nM): 104% | cell viability ([4]; 10 nM): 101% | cell viability ([4]; 100 nM): 100% | cell viability ([4]; 1000 nM): 96% | cell viability ([4]; 10000 nM): 95% | cell viability ([5]; 1 nM): 94.8% | cell viability ([5]; 10 nM): 94.9% | cell viability ([5]; 100 nM): 87.5% | cell viability ([5]; 1000 nM): 96.9% | cell viability ([5]; 10000 nM): 85.3% | drug sensitivity score [6]: 0 | drug sensitivity score [7]: 0 | drug sensitivity score [8]: 0 | drug sensitivity score [9]: 0 | drug sensitivity score [10]: 0.1 | relative viability EC50 [11]: > 10 µM | relative viability EC50 [12]: > 10 µM | relative viability EC50 [13]: > 10 µM | relative viability EC50 [14]: > 10 µM | relative viability EC50 [15]: > 10 µM

Nc1cccc2c1C(=O)N(C1CCC(=O)NC1=O)C2=O (stereo not given) [pomalidomide]
cell viability ([1]; 1 nM): 104% | cell viability ([1]; 10 nM): 104% | cell viability ([1]; 100 nM): 98.5% | cell viability ([1]; 1000 nM): 101% | cell viability ([1]; 10000 nM): 111% | cell viability ([2]; 1 nM): 99% | cell viability ([2]; 10 nM): 97.3% | cell viability ([2]; 100 nM): 104% | cell viability ([2]; 1000 nM): 96.1% | cell viability ([2]; 10000 nM): 98.4% | cell viability ([3]; 1 nM): 93.5% | cell viability ([3]; 10 nM): 97.1% | cell viability ([3]; 100 nM): 89.2% | cell viability ([3]; 1000 nM): 99.4% | cell viability ([3]; 10000 nM): 103% | cell viability ([4]; 1 nM): 106% | cell viability ([4]; 10 nM): 103% | cell viability ([4]; 100 nM): 103% | cell viability ([4]; 1000 nM): 105% | cell viability ([4]; 10000 nM): 90.9% | cell viability ([5]; 1 nM): 86% | cell viability ([5]; 10 nM): 85% | cell viability ([5]; 100 nM): 103% | cell viability ([5]; 1000 nM): 95% | cell viability ([5]; 10000 nM): 98.3% | drug sensitivity score [6]: 0 | drug sensitivity score [7]: 0 | drug sensitivity score [8]: 0 | drug sensitivity score [9]: 0 | drug sensitivity score [10]: 0 | relative viability EC50 [11]: > 10 µM | relative viability EC50 [12]: > 10 µM | relative viability EC50 [13]: > 10 µM | relative viability EC50 [14]: > 10 µM | relative viability EC50 [15]: > 10 µM

O=c1c(O)c(-c2ccc(O)cc2O)oc2cc(O)cc(O)c12 [morin]
cell viability ([1]; 1 nM): 87.2% | cell viability ([1]; 10 nM): 103% | cell viability ([1]; 100 nM): 98.9% | cell viability ([1]; 1000 nM): 97.4% | cell viability ([1]; 10000 nM): 98.9% | cell viability ([2]; 1 nM): 101% | cell viability ([2]; 10 nM): 93.7% | cell viability ([2]; 100 nM): 104% | cell viability ([2]; 1000 nM): 97.3% | cell viability ([2]; 10000 nM): 102% | cell viability ([3]; 1 nM): 94.9% | cell viability ([3]; 10 nM): 95.8% | cell viability ([3]; 100 nM): 99% | cell viability ([3]; 1000 nM): 98.4% | cell viability ([3]; 10000 nM): 95.9% | cell viability ([4]; 1 nM): 113% | cell viability ([4]; 10 nM): 99.5% | cell viability ([4]; 100 nM): 96.3% | cell viability ([4]; 1000 nM): 91.6% | cell viability ([4]; 10000 nM): 102% | cell viability ([5]; 1 nM): 102% | cell viability ([5]; 10 nM): 96.5% | cell viability ([5]; 100 nM): 96.6% | cell viability ([5]; 1000 nM): 102% | cell viability ([5]; 10000 nM): 88.6% | drug sensitivity score [6]: 0 | drug sensitivity score [7]: 0 | drug sensitivity score [8]: 0 | drug sensitivity score [9]: 0 | drug sensitivity score [10]: 0 | relative viability EC50 [11]: > 10 µM | relative viability EC50 [12]: > 10 µM | relative viability EC50 [13]: > 10 µM | relative viability EC50 [14]: > 10 µM | relative viability EC50 [15]: > 10 µM

CNC(=O)c1ccccc1Nc1nc(Nc2ccc(N3CCOCC3)cc2OC)ncc1Cl [NVP-TAE226]
cell viability ([1]; 1 nM): 114% | cell viability ([1]; 10 nM): 99.6% | cell viability ([1]; 100 nM): 91.3% | cell viability ([1]; 1000 nM): 33.1% | cell viability ([1]; 10000 nM): 20.8% | cell viability ([2]; 1 nM): 99.9% | cell viability ([2]; 10 nM): 100% | cell viability ([2]; 100 nM): 94.1% | cell viability ([2]; 1000 nM): 69% | cell viability ([2]; 10000 nM): 22% | cell viability ([3]; 1 nM): 99.6% | cell viability ([3]; 10 nM): 97.7% | cell viability ([3]; 100 nM): 96.3% | cell viability ([3]; 1000 nM): 66.7% | cell viability ([3]; 10000 nM): 48.4% | cell viability ([4]; 1 nM): 93.1% | cell viability ([4]; 10 nM): 90.8% | cell viability ([4]; 100 nM): 86.2% | cell viability ([4]; 1000 nM): 74.5% | cell viability ([4]; 10000 nM): 41.9% | cell viability ([5]; 1 nM): 96% | cell viability ([5]; 10 nM): 104% | cell viability ([5]; 100 nM): 88.3% | cell viability ([5]; 1000 nM): 54.1% | cell viability ([5]; 10000 nM): 44.2% | drug sensitivity score [6]: 13.5 | drug sensitivity score [7]: 7.9 | drug sensitivity score [8]: 6.8 | drug sensitivity score [9]: 6.9 | drug sensitivity score [10]: 9.8 | relative viability EC50 [11]: 0.356 µM | relative viability EC50 [12]: 1.26 µM | relative viability EC50 [13]: 0.645 µM | relative viability EC50 [14]: 0.706 µM | relative viability EC50 [15]: 0.295 µM

N=C(N)NCCC[C@@H](N)C(=O)N[C@@H](CCCNC(=N)N)C(=O)N1CCC[C@H]1C(=O)N1C[C@H](O)C[C@H]1C(=O)NCC(=O)N[C@@H](Cc1cccs1)C(=O)N[C@@H](CO)C(=O)N1Cc2ccccc2C[C@@H]1C(=O)N1[C@H](C(=O)N[C@@H](CCCNC(=N)N)C(=O)O)C[C@@H]2CCCC[C@@H]21 [icatibant-acetate]
cell viability ([1]; 1 nM): 91% | cell viability ([1]; 10 nM): 93.3% | cell viability ([1]; 100 nM): 84.7% | cell viability ([1]; 1000 nM): 102% | cell viability ([1]; 10000 nM): 102% | cell viability ([2]; 1 nM): 102% | cell viability ([2]; 10 nM): 98.8% | cell viability ([2]; 100 nM): 103% | cell viability ([2]; 1000 nM): 98.1% | cell viability ([2]; 10000 nM): 101% | cell viability ([3]; 1 nM): 99% | cell viability ([3]; 10 nM): 97.9% | cell viability ([3]; 100 nM): 101% | cell viability ([3]; 1000 nM): 101% | cell viability ([3]; 10000 nM): 101% | cell viability ([4]; 1 nM): 107% | cell viability ([4]; 10 nM): 92.8% | cell viability ([4]; 100 nM): 98% | cell viability ([4]; 1000 nM): 98.6% | cell viability ([4]; 10000 nM): 104% | cell viability ([5]; 1 nM): 96% | cell viability ([5]; 10 nM): 100% | cell viability ([5]; 100 nM): 90% | cell viability ([5]; 1000 nM): 91.4% | cell viability ([5]; 10000 nM): 103% | drug sensitivity score [6]: 0 | drug sensitivity score [7]: 0 | drug sensitivity score [8]: 0 | drug sensitivity score [9]: 0 | drug sensitivity score [10]: 0 | relative viability EC50 [11]: > 10 µM | relative viability EC50 [12]: > 10 µM | relative viability EC50 [13]: > 10 µM | relative viability EC50 [14]: > 10 µM | relative viability EC50 [15]: > 10 µM

O=C(Nc1ccc(Br)cc1)c1cc(Br)cc(Br)c1O [tribomsalan]
cell viability ([1]; 1 nM): 102% | cell viability ([1]; 10 nM): 104% | cell viability ([1]; 100 nM): 94.5% | cell viability ([1]; 1000 nM): 99.7% | cell viability ([1]; 10000 nM): 82.7% | cell viability ([2]; 1 nM): 96.6% | cell viability ([2]; 10 nM): 98% | cell viability ([2]; 100 nM): 96% | cell viability ([2]; 1000 nM): 102% | cell viability ([2]; 10000 nM): 96.4% | cell viability ([3]; 1 nM): 93.5% | cell viability ([3]; 10 nM): 100% | cell viability ([3]; 100 nM): 91.1% | cell viability ([3]; 1000 nM): 93.7% | cell viability ([3]; 10000 nM): 98.6% | cell viability ([4]; 1 nM): 94.4% | cell viability ([4]; 10 nM): 92.2% | cell viability ([4]; 100 nM): 93.2% | cell viability ([4]; 1000 nM): 102% | cell viability ([4]; 10000 nM): 91.2% | cell viability ([5]; 1 nM): 90.7% | cell viability ([5]; 10 nM): 90.3% | cell viability ([5]; 100 nM): 94.7% | cell viability ([5]; 1000 nM): 105% | cell viability ([5]; 10000 nM): 76.3% | drug sensitivity score [6]: 0.4 | drug sensitivity score [7]: 0 | drug sensitivity score [8]: 0 | drug sensitivity score [9]: 0 | drug sensitivity score [10]: 0.6 | relative viability EC50 [11]: > 10 µM | relative viability EC50 [12]: > 10 µM | relative viability EC50 [13]: > 10 µM | relative viability EC50 [14]: > 10 µM | relative viability EC50 [15]: > 10 µM
